In patent publication US11420969B2 (Exonate Limited, priority 2017, dated 2022) one finds IC50 data, which are given here for 16 compounds.

In one experiment the target is T1, CYP2D6 (Homo sapiens, UniProt P10635).
T1 construct: from tissue; host or cells: human liver microsomes
The experiment is described as follows: biochemical. The format is in vitro ADME. Put shortly: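 Read-out is LC-MS/MS of supernatant, giving % inhibition and IC50 relative to a no-inhibitor ACN/DMSO control. Compound and substrate pool were pre-incubated 20 min at 37° C with human liver microsomes (working stock 0.253 mg/mL) before a 10 min NADPH-driven reaction, quenched with cold ACN.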

The target of a further experiment is T2, CYP3A4 (Homo sapiens, UniProt P08684).
T2 construct: from tissue; host or cells: human liver microsomes
T2 sequence (P08684 whole entry): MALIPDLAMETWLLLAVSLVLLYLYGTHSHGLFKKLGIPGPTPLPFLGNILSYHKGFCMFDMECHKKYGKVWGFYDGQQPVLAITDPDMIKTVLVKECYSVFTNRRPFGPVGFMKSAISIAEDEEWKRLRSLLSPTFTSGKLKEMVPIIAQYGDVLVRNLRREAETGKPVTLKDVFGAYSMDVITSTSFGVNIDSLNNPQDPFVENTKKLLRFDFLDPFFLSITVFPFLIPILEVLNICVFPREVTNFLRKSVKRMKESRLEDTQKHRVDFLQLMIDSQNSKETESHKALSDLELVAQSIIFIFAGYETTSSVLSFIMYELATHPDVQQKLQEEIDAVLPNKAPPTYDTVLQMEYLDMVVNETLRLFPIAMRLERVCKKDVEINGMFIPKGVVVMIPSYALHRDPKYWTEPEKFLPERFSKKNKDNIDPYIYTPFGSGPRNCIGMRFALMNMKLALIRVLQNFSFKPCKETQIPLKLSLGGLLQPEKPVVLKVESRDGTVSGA
The experiment is described as follows: CYP inhibition assay, human liver microsomes, substrate midazolam. The format is in vitro ADME. To be noted: human liver microsomes, 10 min incubation, LC-MS/MS; read-out: CYP Inhibition Activity (IC50/nM) CYP3A4. Put shortly:
(§1)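 Metabolite formation measured by LC-MS/MS after quench with cold acetonitrile, yielding % inhibition and IC50. Reactions ran 10 min at 37° C after NADPH addition, following 20 min pre-incubation of substrate pool and inhibitor with human liver microsomes.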

The next experiment has as its target T3, CYP2C19 (Homo sapiens, UniProt P33261).
T3 construct: from tissue; host or cells: human liver microsomes
The experiment is described as follows: CYP inhibition assay, human liver microsomes, substrate S-mephenytoin. The following applies: human liver microsomes, 10 min incubation, LC-MS/MS; read-out: CYP Inhibition Activity (IC50/nM) CYP2C19. The format is in vitro ADME. A digest of the protocol:
as §1

In a further experiment the target is T4, CYP2C9 (Homo sapiens, UniProt P11712).
T4 construct: from tissue; host or cells: human liver microsomes
T4 sequence (P11712 whole entry): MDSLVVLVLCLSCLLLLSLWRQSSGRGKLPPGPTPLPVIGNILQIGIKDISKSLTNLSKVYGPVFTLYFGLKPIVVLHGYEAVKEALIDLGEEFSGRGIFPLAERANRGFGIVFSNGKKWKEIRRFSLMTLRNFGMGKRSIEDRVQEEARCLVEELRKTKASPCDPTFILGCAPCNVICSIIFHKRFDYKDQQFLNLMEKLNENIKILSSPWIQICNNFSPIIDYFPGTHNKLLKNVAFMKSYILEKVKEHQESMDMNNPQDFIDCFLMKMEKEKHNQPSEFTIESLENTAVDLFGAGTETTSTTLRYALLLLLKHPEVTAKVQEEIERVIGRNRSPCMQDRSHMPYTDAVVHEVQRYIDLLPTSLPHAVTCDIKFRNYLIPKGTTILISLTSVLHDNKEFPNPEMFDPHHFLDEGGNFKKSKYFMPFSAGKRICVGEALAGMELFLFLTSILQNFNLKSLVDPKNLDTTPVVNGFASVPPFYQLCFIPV
Description: CYP inhibition assay, human liver microsomes, substrate diclofenac. The format is in vitro ADME. The following applies: human liver microsomes, 10 min incubation, LC-MS/MS; read-out: CYP Inhibition Activity (IC50/nM) CYP2C9. Put shortly: as §1

A further experiment addresses SRPK1 (Homo sapiens, UniProt Q96SB4). Description: In vitro SRPK1 assay (Kinase-Glo). The format is biochemical.
For a further experiment, the target named is T5, CYP1A2 (Homo sapiens, UniProt P05177).
T5 construct: from tissue; host or cells: human liver microsomes
T5 sequence (P05177 1-516): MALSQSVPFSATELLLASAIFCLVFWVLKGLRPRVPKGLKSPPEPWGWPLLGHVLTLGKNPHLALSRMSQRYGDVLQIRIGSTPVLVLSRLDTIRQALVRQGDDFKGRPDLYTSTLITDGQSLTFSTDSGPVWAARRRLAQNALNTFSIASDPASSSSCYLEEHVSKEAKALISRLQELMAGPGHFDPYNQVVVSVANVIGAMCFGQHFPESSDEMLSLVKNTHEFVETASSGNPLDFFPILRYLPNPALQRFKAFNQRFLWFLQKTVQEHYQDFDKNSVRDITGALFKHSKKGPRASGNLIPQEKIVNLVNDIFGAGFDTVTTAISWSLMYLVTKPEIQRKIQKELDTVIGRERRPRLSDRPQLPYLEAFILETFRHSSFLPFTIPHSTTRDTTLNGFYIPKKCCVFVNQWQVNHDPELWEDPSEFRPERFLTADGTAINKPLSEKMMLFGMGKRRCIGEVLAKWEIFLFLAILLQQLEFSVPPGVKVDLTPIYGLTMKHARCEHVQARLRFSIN
Description: CYP inhibition assay, human liver microsomes, substrate tacrine. To be noted: human liver microsomes, 10 min incubation, LC-MS/MS; read-out: CYP Inhibition Activity (IC50/nM) CYP1A2. The format is in vitro ADME. A digest of the protocol: as §1

T1 sequence (P10635 whole entry): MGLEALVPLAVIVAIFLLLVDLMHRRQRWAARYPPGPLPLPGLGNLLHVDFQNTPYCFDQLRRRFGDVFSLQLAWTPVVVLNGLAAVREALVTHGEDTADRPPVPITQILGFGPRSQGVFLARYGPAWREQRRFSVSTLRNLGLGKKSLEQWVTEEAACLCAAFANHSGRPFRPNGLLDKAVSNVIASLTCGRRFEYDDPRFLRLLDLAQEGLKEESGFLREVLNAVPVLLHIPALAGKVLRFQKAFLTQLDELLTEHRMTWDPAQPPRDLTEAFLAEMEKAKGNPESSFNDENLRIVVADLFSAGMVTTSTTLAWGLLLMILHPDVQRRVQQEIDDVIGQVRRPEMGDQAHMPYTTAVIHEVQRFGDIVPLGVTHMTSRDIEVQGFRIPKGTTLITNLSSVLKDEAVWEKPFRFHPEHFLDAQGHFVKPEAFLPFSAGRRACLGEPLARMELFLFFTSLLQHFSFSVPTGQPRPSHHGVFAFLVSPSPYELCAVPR
T3 sequence (P33261 whole entry): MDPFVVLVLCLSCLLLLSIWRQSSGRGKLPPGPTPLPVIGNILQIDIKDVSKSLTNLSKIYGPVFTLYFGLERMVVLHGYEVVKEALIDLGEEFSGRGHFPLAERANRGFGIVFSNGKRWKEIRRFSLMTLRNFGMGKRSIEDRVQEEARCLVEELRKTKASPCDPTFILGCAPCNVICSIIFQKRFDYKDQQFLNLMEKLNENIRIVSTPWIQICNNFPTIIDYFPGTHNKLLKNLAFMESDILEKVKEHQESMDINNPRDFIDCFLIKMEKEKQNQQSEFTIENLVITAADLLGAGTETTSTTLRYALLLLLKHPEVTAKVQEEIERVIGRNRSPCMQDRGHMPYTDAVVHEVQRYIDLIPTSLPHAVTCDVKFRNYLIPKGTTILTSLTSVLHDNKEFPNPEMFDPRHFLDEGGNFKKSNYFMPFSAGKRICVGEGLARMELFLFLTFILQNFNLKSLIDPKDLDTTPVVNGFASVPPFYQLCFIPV
SRPK1, sequence (Q96SB4 whole entry, species assumed): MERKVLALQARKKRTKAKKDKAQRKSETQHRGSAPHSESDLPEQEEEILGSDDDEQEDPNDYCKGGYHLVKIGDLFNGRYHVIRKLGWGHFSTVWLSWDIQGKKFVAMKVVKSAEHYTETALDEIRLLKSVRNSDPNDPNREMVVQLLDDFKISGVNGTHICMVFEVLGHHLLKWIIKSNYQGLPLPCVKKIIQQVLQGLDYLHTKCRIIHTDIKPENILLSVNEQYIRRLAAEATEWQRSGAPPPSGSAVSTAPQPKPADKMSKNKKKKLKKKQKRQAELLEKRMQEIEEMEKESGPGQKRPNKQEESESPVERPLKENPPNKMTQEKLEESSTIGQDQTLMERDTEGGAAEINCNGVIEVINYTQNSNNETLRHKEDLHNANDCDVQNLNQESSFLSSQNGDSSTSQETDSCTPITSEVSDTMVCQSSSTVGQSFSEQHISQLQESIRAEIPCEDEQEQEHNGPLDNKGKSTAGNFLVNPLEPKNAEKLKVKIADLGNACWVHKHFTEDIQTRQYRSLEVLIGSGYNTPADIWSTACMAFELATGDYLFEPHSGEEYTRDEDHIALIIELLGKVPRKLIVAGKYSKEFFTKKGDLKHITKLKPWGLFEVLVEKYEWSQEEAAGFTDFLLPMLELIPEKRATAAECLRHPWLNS

As to `O=C(Nc1cc(C(F)(F)F)ccc1N1CCC(O)(C2CC2)CC1)c1ccc(C2CCOCC2)o1` [Example 21, N-(2-(4-cyclopropyl-4-hydroxypiperidin-1-yl)-5-(trifluoromethyl)-phenyl)-5-(tetrahydro-2H-pyran-4-yl)furan-2-carboxamide], the IC50 against CYP2D6 is 7.14 µM; on CYP3A4, 20900 nM; at CYP2C19 it was 6140 nM; on CYP2C9, 6350 nM; against SRPK1 it was 9 nM; on CYP1A2, more than 30000 nM.

`O=C(Nc1cc(C(F)(F)F)ccc1N1CCC(O)(c2ccccc2)CC1)c1ccc(C2CCOCC2)o1` [Example 22, N-(2-(4-hydroxy-4-phenylpiperidin-1-yl)-5-(trifluoromethyl)-phenyl)-5-(tetrahydro-2H-pyran-4-yl)furan-2-carboxamide]: the IC50 against CYP2D6 is more than 30 µM; on CYP3A4, 18800 nM; at CYP2C19, 12300 nM; at CYP2C9 it was 12700 nM; on SRPK1 it was 35 nM; at CYP1A2, 15300 nM.

`O=C(Nc1cc(C(F)(F)F)ccc1N1CCC(O)(CC2CC2)CC1)c1ccc(C2CCOCC2)o1` [Example 23, N-(2-(4-(cyclopropylmethyl)-4-hydroxypiperidin-1-yl)-5-(trifluoromethyl)phenyl)-5-(tetrahydro-2H-pyran-4-yl)furan-2-carboxamide]: the IC50 came out at 0.03 µM against CYP2D6; 2650 nM on CYP3A4; 260 nM on CYP2C19; 220 nM at CYP2C9; 64 nM against SRPK1; 2510 nM at CYP1A2.

On to `CC1(CO)CCN(c2ccc(C(F)(F)F)cc2NC(=O)c2ccc(-c3ccncc3)o2)CC1` [Example 24, N-(2-(4-(hydroxymethyl)-4-methylpiperidin-1-yl)-5-(trifluoromethyl)phenyl)-5-(pyridin-4-yl)furan-2-carboxamide], for which the IC50 against CYP2D6 is more than 30 µM; on CYP3A4 it was more than 30000 nM; at CYP2C19, more than 30000 nM; on CYP2C9 it was more than 30000 nM; on SRPK1, 2 nM; on CYP1A2, more than 30000 nM.

For the compound `CC1(CO)CCN(c2ccc(C(F)(F)F)cc2NC(=O)c2ccc(C3CCOCC3)o2)CC1` [Example 25, N-(2-(4-(hydroxymethyl)-4-methylpiperidin-1-yl)-5-(trifluoromethyl)phenyl)-5-(tetrahydro-2H-pyran-4-yl)furan-2-carboxamide], the IC50 on CYP2D6 is more than 30 µM; on CYP3A4 it was more than 30000 nM; at CYP2C19 it was 15800 nM; on CYP2C9 it was 4960 nM; at SRPK1 it was 2 nM; at CYP1A2, more than 30000 nM.

For the compound `CC1(C(=O)O)CCN(c2ccc(C(F)(F)F)cc2NC(=O)c2ccc(-c3ccncc3)o2)CC1` [Example 26, 4-methyl-1-(2-(5-(pyridin-4-yl)furan-2-carboxamido)-4-(trifluoromethyl)phenyl)-piperidine-4-carboxylic acid], the IC50 on CYP2D6 was more than 30 µM; on CYP3A4 it was 4440 nM; at CYP2C19 it was 12900 nM; on CYP2C9, 2150 nM; on SRPK1, 5.6 nM; on CYP1A2, more than 30000 nM.

Take `CC1(C(=O)O)CCN(c2ccc(C(F)(F)F)cc2NC(=O)c2ccc(C3CCOCC3)o2)CC1` [Example 27, 4-methyl-1-(2-(5-(tetrahydro-2H-pyran-4-yl)furan-2-carboxamido)-4-(trifluoromethyl)phenyl)-piperidine-4-carboxylic acid]: the IC50 is more than 30 µM on CYP2D6; more than 30000 nM on CYP3A4; more than 30000 nM at CYP2C19; 12600 nM at CYP2C9; 3.6 nM at SRPK1; more than 30000 nM on CYP1A2.

Consider `CC1(C)CCN(c2ccc(C(F)(F)F)cc2NC(=O)c2ccc(-c3ccncc3)o2)CC1` [Example 28, N-(2-(4,4-dimethylpiperidin-1-yl)-5-(trifluoromethyl)phenyl)-5-(pyridin-4-yl)furan-2-carboxamide], for which the IC50 is more than 30 µM against CYP2D6; more than 30000 nM on CYP3A4; more than 30000 nM on CYP2C19; more than 30000 nM at CYP2C9; 15 nM against SRPK1; more than 30000 nM on CYP1A2.

As to `CC1(C)CCN(c2ccc(C(F)(F)F)cc2NC(=O)c2ccc(C3CCOCC3)o2)CC1` [Example 29, N-(2-(4,4-dimethylpiperidin-1-yl)-5-(trifluoromethyl)phenyl)-5-(tetrahydro-2H-pyran-4-yl)furan-2-carboxamide], the IC50 on CYP2D6 was more than 30 µM; at CYP3A4 it was more than 30000 nM; at CYP2C19, more than 30000 nM; at CYP2C9, more than 30000 nM; against SRPK1, 6 nM; on CYP1A2, more than 30000 nM.

On to `O=C(Nc1cc(C(F)(F)F)ccc1N1CCC(O)CC1)c1ccc(-c2ccncc2)o1` [Example 32, N-(2-(4-hydroxypiperidin-1-yl)-5-(trifluoromethyl)-phenyl)-5-(pyridin-4-yl)furan-2-carboxamide], for which the IC50 at CYP2D6 was found to be 2.1 µM; on CYP3A4 it was 4200 nM; at CYP2C19 it was 1100 nM; at CYP2C9 it was 1500 nM; on SRPK1 it was 0.8 nM; at CYP1A2, 2900 nM.

Turning to `O=C(Nc1cc(C(F)(F)F)ccc1N1CCC(O)CC1)c1ccc(C2CCOCC2)o1` [Example 33, N-(2-(4-hydroxypiperidin-1-yl)-5-(trifluoromethyl)-phenyl)-5-(tetrahydro-2H-pyran-4-yl)furan-2-carboxamide], the IC50 on CYP2D6 is 15.2 µM; at CYP3A4, more than 30000 nM; on CYP2C19, 8100 nM; at CYP2C9, 7600 nM; against SRPK1, 0.9 nM; on CYP1A2 it was 10000 nM.

For the compound `CC1CCN(c2ccc(C(F)(F)F)cc2NC(=O)c2ccc(-c3ccncc3)o2)CC1` [Example 34, N-(2-(4-methylpiperidin-1-yl)-5-(trifluoromethyl)-phenyl)-5-(pyridin-4-yl)furan-2-carboxamide], the IC50 against CYP2D6 came to 5.5 µM; at CYP3A4, 7300 nM; on CYP2C19, 4000 nM; at CYP2C9, 5600 nM; at SRPK1 it was 422 nM; at CYP1A2, 4000 nM.

Regarding `CC1CCN(c2ccc(C(F)(F)F)cc2NC(=O)c2ccc(C3CCOCC3)o2)CC1` [Example 35, N-(2-(4-methylpiperidin-1-yl)-5-(trifluoromethyl)-phenyl)-5-(tetrahydro-2H-pyran-4-yl)furan-2-carboxamide], the IC50 was more than 30 µM at CYP2D6; more than 30000 nM on CYP3A4; 27800 nM at CYP2C19; more than 30000 nM on CYP2C9; 56.1 nM at SRPK1; 4700 nM at CYP1A2.

On to `Cc1ccc(N2CCC(O)CC2)c(NC(=O)c2ccc(C3CCOCC3)o2)c1` [Example 36, N-(2-(4-hydroxypiperidin-1-yl)-5-methylphenyl)-5-(tetrahydro-2H-pyran-4-yl)furan-2-carboxamide], for which the IC50 against CYP2D6 is 21.5 µM; at CYP3A4, more than 30000 nM; on CYP2C19, 7500 nM; at CYP2C9, 4940 nM; at SRPK1, 3.7 nM; on CYP1A2 it was 6590 nM.

Regarding `C[C@@]1(O)CCN(c2ccc(C(F)(F)F)cc2NC(=O)c2ccc(C3CCOCC3)o2)C1` [Example 50, (R)-N-(2-(3-hydroxy-3-methylpyrrolidin-1-yl)-5-(trifluoromethyl)phenyl)-5-(tetrahydro-2H-pyran-4-yl)furan-2-carboxamide], the IC50 at CYP2D6 was more than 30 µM; on CYP3A4, more than 30000 nM; at CYP2C19 it was 24500 nM; at CYP2C9, 9000 nM; on SRPK1, 28.8 nM; at CYP1A2 it was 5300 nM.

Consider `C[C@]1(O)CCN(c2ccc(C(F)(F)F)cc2NC(=O)c2ccc(C3CCOCC3)o2)C1` [Example 51, (S)-N-(2-(3-hydroxy-3-methylpyrrolidin-1-yl)-5-(trifluoromethyl)phenyl)-5-(tetrahydro-2H-pyran-4-yl)furan-2-carboxamide], for which the IC50 is more than 30 µM at CYP2D6; more than 30000 nM on CYP3A4; 20100 nM on CYP2C19; more than 30000 nM on CYP2C9; 96 nM against SRPK1; more than 30000 nM at CYP1A2.
